One data set is described as follows: in vitro. As to conditions: mouse, liver microsomes. For orientation: Liver microsomes are a subcellular fraction often used to study metabolism.
Data set [1] has as its target T1, Nociceptin receptor (Homo sapiens, UniProt P41146). The data set can be described thus: biochemical.
For data set [2] the following is noted: mouse, microsomes.
Data set [3] deals with T1, Nociceptin receptor. The data set can be described thus: biochemical. The source holds these as a separate data set.
The next data set relates to Liver microsomes. Particulars: human.
Data set [4] concerns the target T1, Nociceptin receptor. Briefly: Activity at NOP expressed in HEK293 cells assessed as stimulation of [35S]GTPgammaS binding relative to basal level. It is filed as functional, cell-based. (GTPγS is a poorly hydrolysed GTP analogue; its binding reports G protein activation.)
In another data set the test system is Rattus norvegicus. Briefly: Inhibition of saccharin intake in sc dosed Wistar rat by saccharin-self administration test. It is filed as functional, organism-based.
For data set [5], the target named is T1, Nociceptin receptor. The data set can be described thus: biochemical. This is another data set of the same source.
Data set [6] can be described thus: Ratio of drug level in brain to plasma in Wistar rat at 400 ug/kg, po after […]. Particulars: 0.4 mg/kg, read-out: BPR. It is filed as ADME, organism-based.

Here are results for nine molecules from ChEMBL document CHEMBL1152554, “Synthesis and pharmacological evaluation of 6-naltrexamine analogs for alcohol cessation” (Bioorg Med Chem, 2009).

Structures are written as SMILES. Calls of active or inactive are those of the source. The calls are words filed in the database; no cut-off is given here. Some results are limits rather than exact numbers.

T1 sequence (P41146 whole entry): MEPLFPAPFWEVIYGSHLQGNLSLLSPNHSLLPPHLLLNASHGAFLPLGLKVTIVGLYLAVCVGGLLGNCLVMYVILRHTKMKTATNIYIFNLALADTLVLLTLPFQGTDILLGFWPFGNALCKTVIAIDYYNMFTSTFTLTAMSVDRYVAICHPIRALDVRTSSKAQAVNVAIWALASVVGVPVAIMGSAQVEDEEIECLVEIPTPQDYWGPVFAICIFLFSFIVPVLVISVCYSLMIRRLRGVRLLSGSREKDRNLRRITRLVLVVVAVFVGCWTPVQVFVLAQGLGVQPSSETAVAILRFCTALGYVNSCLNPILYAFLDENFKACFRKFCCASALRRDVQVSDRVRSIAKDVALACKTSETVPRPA

Consider `C=C1CC[C@@]2(O)[C@H]3Cc4ccc(O)c5c4[C@@]2(CCN3CC2CC2)[C@H]1O5`, for which the half-life – broadly, how long it takes for the measured level to halve – in the data set “in vitro” worked out at 20 min.

With `O=C(N[C@@H]1CC[C@@]2(O)[C@H]3Cc4ccc(O)c5c4[C@@]2(CCN3CC2CC2)[C@H]1O5)c1ccc(Cl)c(Cl)c1.O=C(O)C(=O)O`, the EC50 (commonly the midpoint of the concentration-response curve) on Nociceptin receptor [1] was greater than 10 µM; at Nociceptin receptor [3] it was 0.0001 µM. Also, in [2], the Stability result is “Stable”.

With `Cc1ccc(C(=O)N[C@@H]2CC[C@@]3(O)[C@H]4Cc5ccc(O)c6c5[C@@]3(CCN4CC3CC3)[C@H]2O6)cc1.O=C(O)C(=O)O`, the Stability entry (with Liver microsomes; in data set [2]) was “Stable” each time.

For `Oc1ccc2c3c1O[C@H]1c4[nH]c5ccccc5c4C[C@@]4(O)[C@@H](C2)N(CC2CC2)CC[C@]314`, the Emax (in general, the greatest response seen or fitted, relative to the assay's reference) on Nociceptin receptor [4] came to 109%.

As to `O=C(N[C@@H]1CC[C@@]2(O)[C@H]3Cc4ccc(O)c5c4[C@@]2(CCN3CC2CC2)[C@H]1O5)c1ccc(Cl)cc1`, the EC50 at Nociceptin receptor [1] is greater than 10 µM.

On to `O=C(N[C@@H]1CC[C@@]2(O)[C@H]3Cc4ccc(O)c5c4[C@@]2(CCN3CC2CC2)[C@H]1O5)c1ccc(Br)cc1.O=C(O)C(=O)O`, for which the EC50 on Nociceptin receptor [1] was greater than 10 µM. In addition, the Stability entry with Liver microsomes is listed as “Stable”. The inhibition entry with Rattus norvegicus was “Active”. The Ki (commonly a dissociation constant, usually derived from enzyme kinetics or from competition with a known ligand) on Nociceptin receptor [5] was greater than 10 µM.

As to `O=C(N[C@@H]1CC[C@@]2(O)[C@H]3Cc4ccc(O)c5c4[C@@]2(CCN3CC2CC2)[C@H]1O5)c1ccc(C(F)(F)F)cc1.O=C(O)C(=O)O`, the Stability result (in the data set on Liver microsomes; in [2]) was “Stable” throughout.

As for `O=C(O)C(=O)O.O=[14C](N[C@@H]1CC[C@@]2(O)[C@H]3Cc4ccc(O)c5c4[C@@]2(CCN3CC2CC2)[C@H]1O5)c1ccc(Br)cc1`, the Kp at […] in data set [6] amounted to 2.3.

For `CC(C)(C)c1ccc(C(=O)N[C@@H]2CC[C@@]3(O)[C@H]4Cc5ccc(O)c6c5[C@@]3(CCN4CC3CC3)[C@H]2O6)cc1.O=C(O)C(=O)O`, the Stability result in data set [2] was “Stable”.
